Results on three compounds are retold here after US8648091B2, “Dihydroquinolinones as ectoparasiticides” (Novartis AG, priority 2007, dated 2014).

Molecules are shown by their SMILES.

Experiment [1] concerns Ctenocephalides felis (cat flea). Briefly: Activity in vitro against Ctenocephalides felis (cat flea), artificial feeding system. The settings on record: fleas fed on treated blood for 24 hours, dead fleas. How it is done: 1. Activity In Vitro Against Ctenocephalides felis (Cat Flea). A mixed adult population of fleas is placed in a suitably formatted 96-well plate allowing fleas to access and feed on treated blood via an artificial feeding system. Each compound is tested by serial dilution in order to determine its minimal effective dose (MED). Fleas are fed on treated blood for 24 hours, after which the compound's effect is recorded. Insecticidal activity is determined on the basis of the number of dead fleas recovered from the feeding system.

For experiment [2], the system named is Rhipicephalus sanguineus nymphs. Put plainly: In-vivo test against Rhipicephalus sanguineus nymphs on Mongolian gerbils. The arrangement: species or system Mongolian gerbils (Meriones unguiculatus). The following applies: spray (or spot-on) application, tick number reduction vs placebo, Abbot's formula. How it is done: 4. In-Vivo Test Against Rhipicephalus sanguineus Nymphs on Mongolian Gerbils (Meriones unguiculatus) On day 0, gerbils are treated with the test compound at a given dose by spray (or spot-on) application. On day +1 (+2), the animals are infested with nymphs of Rhipicephalus. sanguineus. Ticks are left on the animals until full repletion. Seven days after infestation nymphs dropped off fully engorged are collected and counted. They are kept until molting to also evaluate growth regulating activity of the test compound. Efficacy in killing (and growth regulating) is expressed as a tick number (and molted tick number) reduction in comparison with a placebo treated group, using the Abbot's formula.

The test system of experiment [3] is Rhipicephalus sanguineus. Put plainly: Activity in vitro against ticks, microplate pre-coated with test compound. The settings on record: at 10 ppm; percentage of dead ticks compared to untreated controls. As to the method:
(§1) 2. Activity In Vitro Against Ticks 5-10 ticks of different species (i.e. Rhipicephalus sanguineus, Dermacentor spp., etc.) are distributed into a microplate pre-coated with test compound. Each compound is tested by serial dilution in order to determine its Minimal Effective Dose (MED). The microplates are then incubated at 28° C. and 80% humidity until evaluation. At different time points, ticks are excited by carbon dioxide flush and/or heat. […] If the ticks fail to respond to the stimulation, they are considered dead and the compound is scored as active at the tested concentration. Activity is calculated as a percentage of dead ticks compared to untreated controls.

The test system of experiment [4] is Amblyomma variegatum. The description is as above. The following applies: at 32 ppm; percentage of dead ticks compared to untreated controls. How it is done: as §1
The subject of experiment [5] is Dermacentor variabilis. Described as above. The following applies: at 10 ppm; percentage of dead ticks compared to untreated controls. As to the method: as §1
Experiment [6] concerns Dermanyssus gallinae. Put plainly: Activity in vitro against Dermanyssus gallinae. The settings on record: at 63 ppm; 10 minutes contact, incubated 5 days. How it is done: 3. Activity In Vitro Against Dermanyssus gallinae A clean female mite population is used to seed a suitably formatted 96-well plate containing the test substances to be evaluated for antiparasitic activity. Each compound is tested by serial dilution in order to determine its Minimal Effective Dose (MED). Mites are left in contact with the test compound for 10 minutes and are then incubated at 25° C. and 60% relative humidity (RH) for 5 days, during which the test compound's effect is monitored. Acaricidal activity is confirmed if mites are dead without having laid eggs. Egg-laying and ensuing mite development are also recorded to identify possible growth-regulating activity.

The test system of experiment [7] is Ixodes ricinus. Put plainly: In-vivo test against ticks (Ixodes ricinus) on cats. The following applies: 25 mg/kg spray (1% solution in Polypropylenglycol), vs placebo, Abbot's formula. As to the method:
6. In-Vivo Test Against Ticks (Ixodes ricinus) on Cats
(§2) Cats are separated into one treatment and one control group (4 cats per group). On day 0, the cats are treated with the test compound at a dose of 25 mg/kg (1% solution in Polypropylenglycol) by spray application. On day +1, the animals are infested with unfed adult ticks (sex ratio 1:1). Evaluation of efficacy is performed at 48 h, and then weekly 48 h after reinfestation with ticks by counting the numbers of dead and live ticks recovered from the animals. Efficacy is expressed as comparison with a placebo treated group using the Abbot's formula. Infestation can be repeated at weekly intervals until efficacy drops.

Experiment [8] concerns Rhipicephalus sanguineus. Briefly: In-vivo test against ticks (Rhipicephalus sanguineus) on dogs. The arrangement: species or system Dogs of the beagle breed. The settings on record: for six weeks; 25 mg/kg spot-on (15% solution in Transcutol); weekly reinfestation; vs placebo, Abbot's formula. How it is done: as §2, with “5. In-Vivo Test Against Ticks (Rhipicephalus sanguineus) on Dogs Dogs of the beagle breed” for “Cats”, “dogs” for “cats”, “(15%” for “(1%”, “Transcutol)” for “Polypropylenglycol)”, “spot-on application (between the shoulder blades).” for “spray application.”

For `C=C(C)C1CCC(C)(/C=C/c2ccc3c(c2O)C(O)(c2ccc(OC)cc2)C(OC)C(=O)N3)O1` (stereo not drawn) [compound No. 8], the mean efficacy in experiment [1] (at 100 ppm) came to 90%; in experiment [2] (at 10 ppm), 60%.
In turn, `COc1ccc(C2(O)c3c(ccc(/C=C/C4(C)CCC(C(C)(C)O)O4)c3O)NC(=O)C2OC)cc1` (stereo not drawn) [compound No. 9] showed a mean efficacy in experiment [1] (at 63 ppm) of 70%.
Consider `COc1ccc(C2(O)c3c(ccc(/C=C/C4(C)CCC(C)(C)CO4)c3O)NC(=O)C2OC)cc1` (stereo not drawn) [compound No. 11], for which the mean efficacy in experiment [3] turned out to be 100%; in experiment [4] it was 90%; in experiment [5], 100%; in experiment [1] (at 32 ppm), 95%; in experiment [6], 90%; in experiment [2] (at 3.2 ppm), 95%. Moreover, the activity in experiment [7] (after one week) is on record as 95%; in experiment [7] (after two weeks) it was 70%; in experiment [8], “above 90%”.
